“Also recorded” adds a separate entry of the source.
Experiments:
[1] = test system: avian osteoclasts; experiment: Osteoclastic bone resorption assay (3H proline release from labeled bone); assay type: cell-based, avian (white Leghorn hens); conditions: for effect on PMA stimulated increase in bone resorption: PMA stimulated osteoclasts
Method: Bone resorption assays using 150 μg labeled bone were cultured for four days in the presence of increasing concentrations of PMA. Resorption activity was quantified by measuring ^3H proline released to the media. Data represent the mean +/− SEM of n=5 experiments each performed in quadruplicate.
Avian osteoclasts (from egg-laying white Leghorn hens) were utilized because gram quantities of pure osteoclasts are readily obtained. Avian osteoclasts (>10^7 cells) were isolated as previously described (16). Laying hens on a limited calcium diet produce massive numbers of osteoclasts to meet the calcium requirement for eggshell production. The endosteum of such birds, is >50% osteoclasts by mass. Medullary bone is scraped from the endosteum into calcium- and magnesium-free phosphate-buffered saline (PBS) at 4° C. Cells are separated from matrix by washing through 100 μm nylon filters and sedimented through 70% newborn calf serum. Osteoclasts purified by density gradient sedimentation, result in preparations in which osteoclasts represent ˜75–90% of viable cells. Following sedimentation, macrophages represent <2% of the cell mass. For experiments requiring homogeneous osteoclasts the cells purified by serum sedimentation are then affinity purified b y attachment to bone fragments and then resedimented 24 hrs later, eliminating essentially all but viable, bone-attached osteoclasts (17).
L-[^3H]-proline-labeled devitalized bone is used as Substrate in the avian osteoclast resorption assay. This substrate has the advantages of reflecting removal of both the mineral and organic phases of bone, and is resistant to artifacts due to physicochemical exchange (e.g. media acidification (16)). Weanling rats (40–60 g) are injected with 1 mCi of L-[2,3,4,5−^3H]-proline, >100 Ci/mmol, on alternate days for 10 days. Rats are sacrificed on day 12 and bone recovered by dissection. After washing, the bone is dried in a desiccator at 42° C. for 7 days. Labeled 20–40 μm bone fragments are obtained by grinding the bone in a ball bearing mill and sieving to size.
Osteoclasts are plated at 2–3×10^3 cells/well on 24 well plates with 100 μg of labeled 20–40 μm ^3H labeled bone fragments. To avoid possible contamination (due to fusing macrophages or growth of fibroblast/osteoblast cells) bone resorption is measured after 4 days. Osteoclasts rapidly (˜4 hrs) attach to and begin to degrade the bone fragments, releasing label into the media. Bone degradation is determined by measuring label released to the media. […] The ^3H proline assay is also resistant to pH-dependent artifacts and has less inter-assay variability than pi t assays (17–19). Activity, with 100 μg bone fragments, is linear over 5–7 days (16).

[2] = test system: calmodulin; experiment: Calmodulin protein levels in osteoclasts; assay type: cell-based, avian; conditions: for calmodulin protein levels: PMA treated osteoclasts
[3] = test system: avian osteoclasts; experiment: mim-1 secretion by osteoclasts, Western analysis of lysates and media; assay type: cell-based; conditions: for effect on secretion of mim-1: PMA stimulated osteoclasts
Method: Avian osteoclasts were cultured as described in FIGS. 1 and 2; cells were washed with ice cold PBS and lysed. Culture media was collected from each treatment and boiled in sample buffer. Protein (25 μg) from cell lysates (Lysates) and equal aliquots of the corresponding media (Media) were resolved on 10% SDS-PAGE, transferred to PVDF membrane and Western blotted for mim-1. Molecular weights (kilodaltons) are indicated on the left. Representative of n=2 separate experiments.
Avian osteoclasts were cultured with bone (1 mg/well) for the indicated times in the presence of 0.3 μM PMA. Osteoclasts were washed with ice-cold phosphate buffered saline, lysed and 25 μg cell lysates resolved on 10% SDS-PAGE, transferred to PVDF membrane and probed with for mim-1 as described in the legend to FIG. 4. Data is representative of two separate experiments.
Avian osteoclasts are washed with phosphate buffered saline (PBS) and lysed as previously described (20). The lysis buffer (Buffer A) is 50 mM Tris, pH 7.0, 250 mM sucrose, 1 mM EGTA, 1 mM EDTA, 1 mM ammonium molybdate, 50 mM NaF, 1 mM orthovanadate, 0.5 μM okadaic acid, 5 mM benzamidine, 0.1 mM PMSF, 0.05 mg/ml pepstatin, 0.06 mg/ml leupeptin, 0.018 trypsin inhibitor units of aprotinin/ml, 10% glycerol and 1% Triton X100. Cells were solubilized 1 hr with rotation and the Triton insoluble material removed by centrifugation at 15,000×g for 5 min at 4° C. Lysates (25 μg protein) were resolved on 10% SDS-PAGE. Protein was transferred under standard conditions (21) to PVDF membranes. Mim-1 was detected on Western analysis using a polyclonal antibody generated against a trpE-mim-1 fusion protein (15) (generously provided by Scott Ness, University of New Mexico) by enhanced chemiluminescence. Protein concentrations were determined by the Bio Rad DC assay (Bio Rad, Richmond, Calif.).
To determine the effects of PMA on osteoclast secretion of mim-1 and its relation to bone resorption, osteoclasts were cultured as described above in the presence of the indicated concentrations of PMA and aliquots of media removed at the indicated times (FIG. 4) and the level of mim-1 determined b y Western analysis. As bone resorption was stimulated (see FIG. 1), mim-1 dercreased in the cell lysate (FIG. 4, left, Lysates) and increased in the culture, media (FIG. 4, right, Media).

SMILES | effect on PMA stimulated increase in bone resorption [1] | effect on PMA dependent increase in calmodulin levels ([2]; PMA stimulated osteoclasts) | effect on secretion of mim-1 [3] | EC50 ([1]; Osteoclast, 96 h, read-out: K0.5 of stimulation of bone resorption) [nM] | stimulation of bone resorption by isolated osteoclasts ([1]; isolated avian osteoclasts, 4 days, 3H proline released to media) [fold] | calmodulin protein levels [2] | calmodulin protein levels ([2]; listed as Phorbol myristate acetate) | mim-1 in osteoclast cell lysates ([3]; 0.3 μM PMA, 24 hours) | secretion of mim-1 by osteoclasts ([3]; increasing concentrations of PMA)
CC/C(=C(\c1ccccc1)c1ccc(OCCN(C)C)cc1)c1ccccc1 [tamoxifen] | inhibited | inhibit | did not inhibit | – | – | – | – | – | –
CN1CCN(CCCN2c3ccccc3Sc3ccc(C(F)(F)F)cc32)CC1 [trifluoperazine] | inhibited | – | did not inhibit | – | – | – | – | – | –
CCCCCCCCCCCCCC(=O)O[C@@H]1[C@@H](C)[C@@]2(O)[C@@H](C=C(CO)C[C@]3(O)C(=O)C(C)=C[C@@H]23)[C@@H]2C(C)(C)[C@]12OC(C)=O [PMA, phorbol myristate acetate] | – | – | – | 100 to 300 | 4 | increase in calmodulin protein levels | dose dependent increase | substantially reduced | rapidly increased; also recorded: stimulated in a PMA concentration dependent manner

Source: patent publication US7048919B2, “Osteoclast secreted chemokine and uses thereof” (The UAB Research Foundation, priority 2000, dated 2006)
